The text below walks through data of the C3SDB collision cross section collection.

The conditions of this data set: instrument: TW, calibrated with polyalanine and drug standards.

For the compound `O=C1C(Cl)=C(Cl)C(=O)C(Cl)=C1Cl` [CHLORANIL], the “collision cross section (N2)” value ([M+H]+) is recorded as 148.9 Å².

`NC(=NCCCCCCN=C(N)/N=C(\N)Nc1ccc(Cl)cc1)/N=C(\N)Nc1ccc(Cl)cc1` [CHLORHEXIDINE]: the “collision cross section (N2)” value ([M+H]+) turned out to be 221.3 Å².

Regarding `CC(=O)O[C@]1(C(C)=O)CC[C@H]2[C@@H]3C=C(Cl)C4=CC(=O)CC[C@]4(C)[C@H]3CC[C@@]21C` [CHLORMADINONE ACETATE], under “[M+H]+”, the “collision cross section (N2)” value was found to be 197 Å².

For `CCCNC(=O)NS(=O)(=O)c1ccc(Cl)cc1` [CHLORPROPAMIDE], the “collision cross section (N2)” value ([M+H]+) was 158.5 Å².

As for `CC(C)CCC[C@@H](C)[C@H]1CC[C@H]2[C@@H]3CC=C4CC(=O)CC[C@]4(C)[C@H]3CC[C@]12C` [CHOLEST-5-EN-3-ONE], for the setting “[M+H]+”, the “collision cross section (N2)” value was found to be 211.4 Å².

For the compound `O=C(O)c1cc(=O)c2ccccc2o1` [CHROMOCARB], the “collision cross section (N2)” value ([M+H]+) is on record as 134 Å².

As to `COc1cc(OC)c2c(=O)cc(-c3ccccc3)oc2c1` [CHRYSIN DIMETHYL ETHER], the “collision cross section (N2)” value ([M+H]+) turned out to be 160.5 Å².

For `O=C1CCc2cc(OCCCCc3nnnn3C3CCCCC3)ccc2N1` [CILOSTAZOL], the “collision cross section (N2)” value ([M+H]+) is 199.7 Å².

As to `C=C[C@H]1CN2CC[C@H]1C[C@H]2[C@H](O)c1ccnc2ccccc12` [CINCHONIDINE], the “collision cross section (N2)” value ([M+H]+) was found to be 168.2 Å².

For `CC[C@H]1OC(=O)[C@H](C)[C@@H](O[C@H]2C[C@@](C)(OC)[C@@H](O)[C@H](C)O2)[C@H](C)[C@@H](O[C@@H]2O[C@H](C)C[C@H](N(C)C)[C@H]2O)[C@](C)(OC)C[C@@H](C)C(=O)[C@H](C)[C@@H](O)[C@]1(C)O` [CLARITHROMYCIN], the “collision cross section (N2)” value ([M+H]+) came out at 264.2 Å².

As for `CCC(=O)O[C@]1(C(=O)CCl)[C@@H](C)C[C@H]2[C@@H]3CCC4=CC(=O)C=C[C@]4(C)[C@@]3(F)[C@@H](O)C[C@@]21C` [CLOBETASOL PROPIONATE], the “collision cross section (N2)” value ([M+H]+) was found to be 205.1 Å².

As for `CC(C)N=c1cc2n(-c3ccc(Cl)cc3)c3ccccc3nc-2cc1Nc1ccc(Cl)cc1` [CLOFAZIMINE], the “collision cross section (N2)” value ([M+H]+) is given as 216.8 Å².

On to `Oc1ccc(Cl)c2cccnc12` [CLOXYQUIN], for which the “collision cross section (N2)” value ([M+H]+) is reported as 129.5 Å².

`C[C@H]1[C@H]2CC[C@H]3[C@@H]4CC=C5C[C@@H](N(C)C)CC[C@]5(C)[C@H]4CC[C@]23CN1C` [CONESSINE]: the “collision cross section (N2)” value ([M+H]+) came out at 195.4 Å².

On to `C[C@@H]1O[C@@H](O[C@H]2CC[C@]3(C=O)[C@H]4CC[C@]5(C)[C@@H](C6=CC(=O)OC6)CC[C@]5(O)[C@@H]4CC[C@]3(O)C2)[C@H](O)[C@H](O)[C@H]1O` [CONVALLATOXIN], for which the “collision cross section (N2)” value ([M+H]+) came to 238.1 Å².

Turning to `CN1C(=O)CC[C@H]1c1cccnc1` [COTININE], the “collision cross section (N2)” value ([M+H]+) was 141.1 Å².

Take `CC(=O)Oc1c(C)cccc1C(=O)O` [CRESOPIRINE]: the “collision cross section (N2)” value ([M+H]+) is 129.1 Å².

Turning to `Cc1c2oc3c(C)ccc(C(=O)N[C@@H]4C(=O)N[C@H](C(C)C)C(=O)N5CCC[C@H]5C(=O)N(C)CC(=O)N(C)[C@@H](C(C)C)C(=O)O[C@@H]4C)c3nc-2c(C(=O)N[C@@H]2C(=O)N[C@H](C(C)C)C(=O)N3CCC[C@H]3C(=O)N(C)CC(=O)N(C)[C@@H](C(C)C)C(=O)O[C@@H]2C)c(N)c1=O` [DACTINOMYCIN], the “collision cross section (N2)” value ([M+H]+) is given as 341.2 Å².

As for `O=C1c2cccc(O)c2C(=O)c2c(O)cccc21` [DANTHRON], the “collision cross section (N2)” value ([M+H]+) amounted to 148.3 Å².

With `Nc1ccc(S(=O)(=O)c2ccc(N)cc2)cc1` [DAPSONE], under “[M+H]+”, the “collision cross section (N2)” value is listed as 151.7 Å².

For `CC(C)CCCC1(C)C=Cc2c(O)c3c(c(CCC(C)C)c2O1)OC12C(CC4CC1C(C)(C)OC2(CCC(C)C(=O)O)C4O)C3=O` (stereo not drawn) [DECAHYDROGAMBOGIC ACID], where the note is “[M+H]+”, the “collision cross section (N2)” value was 251 Å².

In the case of `CCCCCCCCCCOc1cc2c(=O)c(C(=O)OCC)c[nH]c2cc1OCC` [DECOQUINATE], the “collision cross section (N2)” value ([M+H]+) is given as 216.2 Å².

`COc1cc2c(cc1OC)[C@@H]1C(=O)c3ccc4c(c3O[C@@H]1CO2)C=CC(C)(C)O4` [DEGUELIN(-)]: where the note is “[M+H]+”, the “collision cross section (N2)” value was 194.2 Å².

As for `C[C@H](CCC(=O)O)[C@H]1CC[C@H]2[C@@H]3C(=O)C[C@@H]4CC(=O)CC[C@]4(C)[C@H]3CC(=O)[C@]12C` [DEHYDROCHOLIC ACID], the “collision cross section (N2)” value ([M+Na]+) is recorded as 192.1 Å².

Consider `C=C(C)C1Cc2c(ccc3c(=O)c4c(oc23)COc2cc(OC)c(OC)cc2-4)O1` (stereo not drawn) [DEHYDROROTENONE], for which the “collision cross section (N2)” value ([M+H]+) came out at 192.3 Å².

Take `COc1ccc(-c2cc(=O)c3c(O)c(OC)c(OC)c(OC)c3o2)cc1OC` [DEMETHYLNOBILETIN]: the “collision cross section (N2)” value ([M+H]+) was 186.6 Å².

Consider `CC(=O)O[C@@H]1C[C@H]2C(C)(C)C(=O)C=C[C@]2(C)[C@H]2CC[C@]3(C)C(=CC(=O)O[C@H]3c3ccoc3)[C@@]21C` [DEOXYGEDUNIN], for which the “collision cross section (N2)” value ([M+H]+) stood at 206.3 Å².

Regarding `CC(=O)O[C@H]1C[C@@H](OC(C)=O)C(C)(C)C2C[C@@H](OC(C)=O)[C@@]3(C)C4=CC(=O)O[C@@H](c5ccoc5)[C@]4(C)CCC3[C@]21C` (stereo partly drawn) [DEOXYKHIVORIN], the “collision cross section (N2)” value ([M+H]+) is listed as 224.9 Å².

`COc1cc(OC)c2c(=O)c(-c3ccc4c(c3)OCO4)coc2c1` [DERRUSTONE]: the “collision cross section (N2)” value ([M+H]+) is 169.8 Å².

For `COC(=O)[C@@H]1OC(=O)C2OC23[C@@]1(C)CCC1[C@]2(C)C(C[C@@H](O)[C@]13C)C(C)(C)[C@H](OC(C)=O)C[C@@H]2OC(C)=O` (stereo partly drawn) [DESACETYL (7)KHIVORINIC ACID, METHYL ESTER], the “collision cross section (N2)” value ([M+H]+) is recorded as 216.9 Å².

Take `C[C@@H]1C[C@H]2[C@@H]3CCC4=CC(=O)C=C[C@]4(C)[C@@]3(F)[C@@H](O)C[C@]2(C)[C@@]1(O)C(=O)CO` [DEXAMETHASONE]: the “collision cross section (N2)” value ([M+H]+) amounted to 187.9 Å².

As for `CC1=NS(=O)(=O)c2cc(Cl)ccc2N1` [DIAZOXIDE], the “collision cross section (N2)” value ([M+H]+) is given as 143.7 Å².

As for `CCCCOC(=O)c1ccccc1C(=O)OCCCC` [DIBUTYL PHTHALATE], the “collision cross section (N2)” value ([M+Na]+) is 180.7 Å².

In the case of `C/C=C(/C(=C/C)c1ccc(O)cc1)c1ccc(O)cc1` [DIENESTROL], the “collision cross section (N2)” value ([M+Na]+) is listed as 153.2 Å².

With `CCCCCC1C(=O)CCC1CC(=O)O` (stereo not drawn) [DIHYDROJASMONIC ACID], the “collision cross section (N2)” value ([M+H]+) was 147 Å².

As for `Cc1c(C(N)=O)cc([N+](=O)[O-])cc1[N+](=O)[O-]` [DINITOLMIDE], the “collision cross section (N2)” value ([M+H]+) is given as 143.7 Å².

Consider `COc1ccc(-c2cc(=O)c3c(O)cc(O)cc3o2)cc1O` [DIOSMETIN], for which, under “[M+H]+”, the “collision cross section (N2)” value is 164.8 Å².

Regarding `COc1ccc(-c2cc(=O)c3c(O)cc(O[C@@H]4O[C@H](CO[C@@H]5O[C@@H](C)[C@H](O)[C@@H](O)[C@H]5O)[C@@H](O)[C@H](O)[C@H]4O)cc3o2)cc1O` [DIOSMIN], under “[M+H]+”, the “collision cross section (N2)” value was 242.5 Å².

On to `CC(=O)Oc1ccccc1C(=O)Oc1ccccc1C(=O)O` [DIPLOSALSALATE], for which the “collision cross section (N2)” value ([M+H]+) is reported as 159.4 Å².

Turning to `COc1ccc(-c2coc3c(O)c(O)c(OC)cc3c2=O)cc1` [DIPTERYXIN], the “collision cross section (N2)” value ([M+H]+) is recorded as 168.5 Å².

Consider `COc1cccc2c1C(=O)c1c(O)c3c(c(O)c1C2=O)C[C@@](O)(C(=O)CO)C[C@@H]3O[C@H]1C[C@H](N)[C@H](O)[C@H](C)O1` [DOXORUBICIN], for which the “collision cross section (N2)” value ([M+H]+) came to 227 Å².

As to `OCC(O)CN1CCN(c2ccccc2)CC1` (stereo not drawn) [DROPROPIZINE], the “collision cross section (N2)” value ([M+H]+) is listed as 155.7 Å².

Take `Cn1c(=O)c2c(ncn2CC(O)CO)n(C)c1=O` (stereo not drawn) [DYPHYLLINE]: the “collision cross section (N2)” value ([M+H]+) was found to be 152.6 Å².

In the case of `CC[C@H]1CN2CCc3cc(OC)c(OC)cc3[C@@H]2C[C@@H]1C[C@H]1NCCc2cc(OC)c(OC)cc21` [EMETINE], under “[M+H]+”, the “collision cross section (N2)” value was 219.6 Å².

As to `CC1(C)[C@@H](O)CC[C@]2(C)[C@H]3C(=O)C=C4[C@@H]5C[C@@](C)(C(=O)O)CC[C@]5(C)CC[C@@]4(C)[C@]3(C)CC[C@@H]12` [ENOXOLONE], the “collision cross section (N2)” value ([M+H]+) is recorded as 213.9 Å².

As to `CC(=O)Oc1cc(OC(C)=O)c2c(c1)O[C@H](c1ccc(OC(C)=O)c(OC(C)=O)c1)[C@H](OC(C)=O)C2` [EPICATECHIN PENTAACETATE], the “collision cross section (N2)” value ([M+H]+) was determined as 207.3 Å².

In the case of `Oc1cc(O)c2c(c1)O[C@H](c1ccc(O)c(O)c1)[C@H](O)C2` [EPICATECHIN], the “collision cross section (N2)” value ([M+H]+) amounted to 161.5 Å².

In the case of `C[C@]12CC[C@@H]3c4ccc(O)cc4CC[C@H]3[C@@H]1C[C@H](O)[C@@H]2O` [EPIESTRIOL], the “collision cross section (N2)” value ([M+H]+) is 153.6 Å².

Consider `C[C@]12CC[C@H]3[C@@H](CCC4=CC(=O)CC[C@@]43C)[C@@H]1CC[C@H]2O` [EPITESTOSTERONE], for which, under “[M+H]+”, the “collision cross section (N2)” value was 170.7 Å².

As for `CC[C@H]1OC(=O)[C@H](C)[C@@H](O[C@H]2C[C@@](C)(OC)[C@@H](O)[C@H](C)O2)[C@H](C)[C@@H](O[C@@H]2O[C@H](C)C[C@H](N(C)C)[C@H]2O)[C@](C)(O)C[C@@H](C)C(=O)[C@H](C)[C@@H](O)[C@]1(C)O` [ERYTHROMYCIN], where the note is “[M+H]+”, the “collision cross section (N2)” value is 258.1 Å².

For `CN1CC[C@@]2(C)c3cc(O)ccc3N(C)[C@@H]12` [ESEROLINE], for the setting “[M+H]+”, the “collision cross section (N2)” value came out at 149.1 Å².

`CCCCC(=O)O[C@H]1CC[C@H]2[C@@H]3CCc4cc(O)ccc4[C@H]3CC[C@]12C` [ESTRADIOL VALERATE]: the “collision cross section (N2)” value ([M+H]+) amounted to 171 Å².

In the case of `CCOc1ccc2nc(S(N)(=O)=O)sc2c1` [ETHOXZOLAMIDE], for the setting “[M+H]+”, the “collision cross section (N2)” value was determined as 152.7 Å².

Regarding `C=C(C)c1cc2cc(C(C)=O)c(O)cc2o1` [EUPARIN], the “collision cross section (N2)” value ([M+H]+) is recorded as 143.2 Å².

On to `COc1c2ccoc2nc2c(OC)c(OCC(O)C(C)(C)O)ccc12` (stereo not drawn) [EVOXINE], for which, for the setting “[M+H]+”, the “collision cross section (N2)” value is on record as 181.4 Å².

For `CCCCCCOc1ccccc1C(N)=O` [EXALAMIDE], the “collision cross section (N2)” value ([M+H]+) is 154.6 Å².

On to `C=C1C[C@@H]2[C@H](CC[C@]3(C)C(=O)CC[C@@H]23)[C@@]2(C)C=CC(=O)C=C12` [EXEMESTANE], for which the “collision cross section (N2)” value ([M+H]+) was determined as 171.1 Å².

In the case of `NC(N)=Nc1nc(CSCC/C(N)=N/S(N)(=O)=O)cs1` [FAMOTIDINE], the “collision cross section (N2)” value ([M+H]+) worked out at 167.2 Å².
